Measurements taken from article PMC7655065, “Effect of 3-subsitution of quinolinehydroxamic acids on selectivity of histone deacetylase isoforms” (Journal of Enzyme Inhibition and Medicinal Chemistry, 2020).
Where two headings read alike, the source gives them in different places.

How the values were obtained:
[1] = tested on: A549 cells; experiment: Sulforhodamine B antiproliferative assay, A549; assay type: cell-based; details: Homo sapiens
Description: (§1) All human cancer cells were maintained in RPMI 1640 medium supplemented with 10% FBS and penicillin (100 units/ml)/streptomycin (100 µg/ml)/amphotericin B (0.25 µg/ml). All cells were maintained in humidified air containing 5% CO2 at 37 °C and cultured every 2–3 days. […]
(§2) Cells were seeded at the density of 5000 cells/well into 96-plate overnight. Basal cells were fixed with 10% trichloroacetic acid (TCA) to represent the cell population at the time of compound addition (T0). After additional incubation of DMSO (C) or different doses of test compounds (Tx) for 48 h, cells were fixed with 10% TCA and stained with SRB at 0.4% (w/v) in 1% AcOH. Unbound SRB was washed out using 1% AcOH and SRB bound cells were solubilised with 10 mM Trizma base. The absorbance was read at a wavelength of 515 nm. The 50% growth inhibition (GI50) was calculated by 100 − [(Tx – T0)/(C – T0)] × 100.

[2] = target: T1, HDAC6 (Homo sapiens, UniProt Q9UBN7); experiment: HDAC biochemical assay (Fluor-de-Lys), HDAC6; details: human recombinant HDAC6
T1 construct: EurofinPanlabs (Taipei, Taiwan)
T1 sequence (Q9UBN7 1-1215): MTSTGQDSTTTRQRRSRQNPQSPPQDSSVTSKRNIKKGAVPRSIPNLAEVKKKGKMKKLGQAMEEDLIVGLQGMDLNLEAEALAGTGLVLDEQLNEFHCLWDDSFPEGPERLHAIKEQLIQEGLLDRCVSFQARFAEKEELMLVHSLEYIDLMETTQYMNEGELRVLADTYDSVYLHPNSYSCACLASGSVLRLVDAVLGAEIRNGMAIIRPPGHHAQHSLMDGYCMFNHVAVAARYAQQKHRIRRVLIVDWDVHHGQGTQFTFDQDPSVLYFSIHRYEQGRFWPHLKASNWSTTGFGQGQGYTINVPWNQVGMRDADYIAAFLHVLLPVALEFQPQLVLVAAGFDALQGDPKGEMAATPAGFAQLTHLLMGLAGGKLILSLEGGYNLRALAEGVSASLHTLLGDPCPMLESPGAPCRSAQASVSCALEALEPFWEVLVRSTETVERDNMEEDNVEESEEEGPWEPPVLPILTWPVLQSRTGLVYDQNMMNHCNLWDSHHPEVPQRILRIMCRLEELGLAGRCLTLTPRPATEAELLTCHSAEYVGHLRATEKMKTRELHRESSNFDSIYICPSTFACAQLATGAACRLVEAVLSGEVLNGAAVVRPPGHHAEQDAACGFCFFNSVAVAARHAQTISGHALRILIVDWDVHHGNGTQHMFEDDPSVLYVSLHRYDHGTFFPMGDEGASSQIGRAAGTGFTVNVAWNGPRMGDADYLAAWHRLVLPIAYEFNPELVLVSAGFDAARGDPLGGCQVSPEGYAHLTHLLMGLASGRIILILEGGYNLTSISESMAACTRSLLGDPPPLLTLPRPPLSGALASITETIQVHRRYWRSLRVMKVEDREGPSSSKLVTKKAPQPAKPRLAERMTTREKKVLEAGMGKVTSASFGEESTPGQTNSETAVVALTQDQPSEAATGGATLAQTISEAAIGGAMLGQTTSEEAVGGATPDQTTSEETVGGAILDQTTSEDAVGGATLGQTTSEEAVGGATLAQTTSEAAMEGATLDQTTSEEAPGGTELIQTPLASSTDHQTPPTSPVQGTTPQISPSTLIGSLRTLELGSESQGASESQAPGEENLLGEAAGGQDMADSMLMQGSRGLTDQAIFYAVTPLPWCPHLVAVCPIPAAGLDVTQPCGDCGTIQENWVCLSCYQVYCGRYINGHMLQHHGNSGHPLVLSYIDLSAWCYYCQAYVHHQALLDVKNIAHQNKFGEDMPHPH

[3] = tested on: HCT116 cells; experiment: Sulforhodamine B antiproliferative assay, HCT116; assay type: cell-based; details: Homo sapiens, HCT-116, SRB, 48 h, values > 10 μM estimated from best curve fitting
Description: as §1, §2

[4] = target: T2, HDAC8 (Homo sapiens, UniProt Q9BY41); experiment: HDAC biochemical assay (Fluor-de-Lys), HDAC8; details: for IC50: human recombinant HDAC8; for Selectivity ratio of HDAC8 over HDAC6: IC50 HDAC8 / IC50 HDAC6
T2 construct: EurofinPanlabs (Taipei, Taiwan)
T2 sequence (Q9BY41 1-377): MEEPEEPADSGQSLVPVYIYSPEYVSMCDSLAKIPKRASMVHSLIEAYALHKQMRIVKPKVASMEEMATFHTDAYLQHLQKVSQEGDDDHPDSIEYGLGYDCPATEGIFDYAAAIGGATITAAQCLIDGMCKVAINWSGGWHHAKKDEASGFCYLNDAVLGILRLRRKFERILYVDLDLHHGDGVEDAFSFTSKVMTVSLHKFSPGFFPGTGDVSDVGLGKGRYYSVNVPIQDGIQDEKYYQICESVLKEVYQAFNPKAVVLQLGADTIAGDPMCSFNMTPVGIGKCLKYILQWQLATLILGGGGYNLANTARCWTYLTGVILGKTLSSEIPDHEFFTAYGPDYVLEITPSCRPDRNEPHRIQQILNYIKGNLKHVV

[5] = target: T3, HDAC1 (Homo sapiens, UniProt Q13547); experiment: HDAC biochemical assay (Fluor-de-Lys), HDAC1; details: for IC50: human recombinant HDAC1, values > 10 μM estimated from best curve fitting; for Selectivity ratio of HDAC1 over HDAC6: IC50 HDAC1 / IC50 HDAC6
T3 construct: EurofinPanlabs (Taipei, Taiwan)
T3 sequence (Q13547 whole entry): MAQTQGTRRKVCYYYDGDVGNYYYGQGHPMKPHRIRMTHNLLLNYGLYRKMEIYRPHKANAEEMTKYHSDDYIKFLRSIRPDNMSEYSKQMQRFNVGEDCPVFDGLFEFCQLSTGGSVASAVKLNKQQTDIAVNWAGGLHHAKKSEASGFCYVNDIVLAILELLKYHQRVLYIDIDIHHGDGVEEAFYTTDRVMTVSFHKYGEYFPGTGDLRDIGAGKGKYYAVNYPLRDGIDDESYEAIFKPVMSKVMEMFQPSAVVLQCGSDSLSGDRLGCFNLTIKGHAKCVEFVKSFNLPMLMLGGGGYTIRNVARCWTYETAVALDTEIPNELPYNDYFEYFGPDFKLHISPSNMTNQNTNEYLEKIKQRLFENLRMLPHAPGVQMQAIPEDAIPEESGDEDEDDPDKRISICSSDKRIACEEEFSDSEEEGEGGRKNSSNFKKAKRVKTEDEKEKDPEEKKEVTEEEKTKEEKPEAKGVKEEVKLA

[6] = tested on: A549 cells; experiment: Western blot analysis of apoptosis and DNA damage markers; assay type: cell-based, human
Description: buffer (20 mMTris-HCl pH 7.5, 150 mM NaCl, 1 mM Na2EDTA, 1 mM EGTA, 1% NP-40, 1% sodium deoxycholate, 0.1% SDS, 2.5 mM β-glycerylphosphate, 1 mM Na4P2O7, 5 mM NaF, 1 mM Na3VO4 and protease inhibitor cocktail from Millipore) on ice for 30 min following by centrifugation at 13000 rpm for 30 min. Protein concentrations were determined and equal amounts of protein were separated by 8–15% sodium dodecyl sulphate-polyacrylamide gel electrophoresis (SDS–PAGE) and transferred to poly(vinylidene difluoride) (PVDF) membranes. Membranes were immunoblotted with specific antibodies overnight at 4 °C and then applied to appropriate horseradish peroxidase-conjugated anti-mouse or anti-rabbit IgG secondary antibodies for 1 h at RT. Signals were detected using an enhanced chemiluminescence (Amersham, Buckinghamshire, UK).

[7] = target: T4, HDAC2 (Homo sapiens, UniProt Q92769); experiment: HDAC biochemical assay (Fluor-de-Lys), HDAC2; details: for IC50: human recombinant HDAC2, dash = no inhibition or activity that could not be fitted to an IC50 curve; for Selectivity ratio of HDAC2 over HDAC6: IC50 HDAC2 / IC50 HDAC6
T4 construct: EurofinPanlabs (Taipei, Taiwan)
T4 sequence (Q92769 whole entry): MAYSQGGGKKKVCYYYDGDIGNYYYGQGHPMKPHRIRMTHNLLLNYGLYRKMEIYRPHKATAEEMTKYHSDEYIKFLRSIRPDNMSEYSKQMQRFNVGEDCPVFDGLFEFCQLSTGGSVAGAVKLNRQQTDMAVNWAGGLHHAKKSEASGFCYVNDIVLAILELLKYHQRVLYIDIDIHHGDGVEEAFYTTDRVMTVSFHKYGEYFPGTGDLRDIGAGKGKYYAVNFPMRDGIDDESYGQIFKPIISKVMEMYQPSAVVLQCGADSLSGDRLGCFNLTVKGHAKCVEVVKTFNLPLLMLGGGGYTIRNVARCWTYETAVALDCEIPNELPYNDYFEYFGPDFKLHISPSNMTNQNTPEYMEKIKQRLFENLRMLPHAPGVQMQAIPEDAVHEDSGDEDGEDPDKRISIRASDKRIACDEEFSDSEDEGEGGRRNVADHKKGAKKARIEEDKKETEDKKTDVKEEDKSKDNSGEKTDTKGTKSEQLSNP

[8] = tested on: A549 cells; experiment: Flow cytometry cell cycle analysis; assay type: cell-based, human; details: A549 cells, 0.25, 0.5, 10 μM, 48 h, propidium iodide
Description: Briefly, A549 cells were starved with EBM-2 medium overnight and were subsequently replenished with EGM-2 medium with or without 17, 25, and 26 (0.25, 0.5, 10 µM) for 48 h. After being trypsinized and fixed in ice-cold 75% MeOH for 1 h at −20 °C, A549 cells were washed with PBS and resuspended in 0.2 ml DNA extraction buffer (0.2 M Na2HPO4, 0.1 M citric acid; pH 7.8) for 30 min. Then the cells were stained with propidium iodide solution (PI; 100 µg/ml RNase, 80 µg/ml propidium iodide, 0.1% Triton X-100) in PBS. FACScan flow cytometry was utilised to determine cell cycle distribution, and data analysis was performed with CellQuest software (BD Biosciences).

[9] = A549 cells, SRB, 48 h, values > 10 μM estimated from best curve fitting, read-out: Antiproliferative activity IC50, A549

SMILES | IC50 [1, 9] | IC50 [2] | IC50 [3] | IC50 [4] | IC50 [5] | IC50 [7] | Selectivity ratio of HDAC8 over HDAC6 [4] | Selectivity ratio of HDAC1 over HDAC6 [5] | Selectivity ratio of HDAC2 over HDAC6 [7] | IC50 ([1]; range over both cell lines (A549 and HCT116) and both compounds, abstract, read-out: IC50 values against A549 and HCT116 cells) | Rank of efficacy in cleaving caspase isoforms (Western blot) ([6]; A549 cells, 48 h, comparison among the three tested compounds) | Cell cycle distribution, sub G1 population [8] | Caspase 3, 8, and 9 cleavage (Western blot) ([6]; A549 cells treated for 48 h, 0.25, 5 and 10 µM)
O=C(NO)c1ccc(CNc2cccc3cc(Cl)cnc23)cc1 [Compound 14, 4-[(3-Chloro-quinolin-8-ylamino)-methyl]-N-hydroxy-benzamide] | 3.14 ± 0.31 µM | 0.0202 µM | 4.82 ± 0.29 µM | 3.64 µM | 4.32 µM | – | – | – | – | – | – | – | –
O=C(NO)c1ccc(CNc2cccc3cc(Br)cnc23)cc1 [Compound 15, 4-[(3-Bromo-quinolin-8-ylamino)-methyl]-N-hydroxy-benzamide] | > 10 µM | – | > 10 µM | – | – | – | – | – | – | – | – | – | –
O=C(NO)c1ccc(CNc2cccc3cc(I)cnc23)cc1 [Compound 16, N-Hydroxy-4-[(3-iodo-quinolin-8-ylamino)-methyl]-benzamide] | 3.41 ± 0.9 µM | – | 4.79 ± 0.47 µM | – | – | – | – | – | – | – | – | – | –
COc1cnc2c(NCc3ccc(C(=O)NO)cc3)cccc2c1 [Compound 17, N-Hydroxy-4-[(3-methoxy-quinolin-8-ylamino)-methyl]-benzamide] | 3.11 ± 0.24 µM | 0.00779 µM | 4.76 ± 0.43 µM | 2.76 µM | 4.95 µM | > 10 µM | – | – | – | – | least potent amongst these three compounds | – | –
COc1ccc(-c2cnc3c(NCc4ccc(C(=O)NO)cc4)cccc3c2)cc1 [Compound 20, N-Hydroxy-4-(((3–(4-methoxyphenyl)quinolin-8-yl)amino)methyl)benzamide] | 9.1 ± 0.3 µM | – | > 10 µM | – | – | – | – | – | – | – | – | – | –
N#Cc1cccc(-c2cnc3c(NCc4ccc(C(=O)NO)cc4)cccc3c2)c1 [Compound 22, 4-(((3–(3-Cyanophenyl)quinolin-8-yl)amino)methyl)-N-hydroxybenzamide] | 2.04 ± 0.35 µM | 0.0362 µM | 3.18 ± 0.16 µM | 3.83 µM | 9.11 µM | 1.98 µM | (106) | (252) | (55) | – | – | – | –
O=C(NO)c1ccc(CNc2cccc3cc(-c4cccc([N+](=O)[O-])c4)cnc23)cc1 [Compound 24, N-Hydroxy-4-(((3–(3-nitrophenyl)quinolin-8-yl)amino)methyl)benzamide] | 4.05 ± 0.42 µM | – | 2.88 ± 0.21 µM | – | – | – | – | – | – | – | – | – | –
O=C(NO)c1ccc(CNc2cccc3cc(-c4ccoc4)cnc23)cc1 [Compound 28, 4-(((3-(Furan-3-yl)quinolin-8-yl)amino)methyl)-N-hydroxybenzamide] | 3.77 ± 0.28 µM | 0.0134 µM | 3.77 ± 0.21 µM | 2.91 µM | 4.59 µM | 2.1 µM | (216) | (343) | (157) | – | – | – | –
O=C(NO)c1ccc(CNc2cccc3cc(-c4ccsc4)cnc23)cc1 [Compound 29, N-Hydroxy-4-(((3-(thiophen-3-yl)quinolin-8-yl)amino)methyl)benzamide] | 3.84 ± 0.4 µM | 0.0301 µM | 3.59 ± 0.51 µM | 4.93 µM | 6 µM | 3.52 µM | (164) | (199) | (117) | – | – | – | –

Second part, led by results:

IC50 [1, 9] | IC50 [2] | IC50 [3] | IC50 [4] | IC50 [5] | IC50 [7] | Selectivity ratio of HDAC8 over HDAC6 [4] | Selectivity ratio of HDAC1 over HDAC6 [5] | Selectivity ratio of HDAC2 over HDAC6 [7] | IC50 ([1]; range over both cell lines (A549 and HCT116) and both compounds, abstract, read-out: IC50 values against A549 and HCT116 cells) | SMILES | Rank of efficacy in cleaving caspase isoforms (Western blot) ([6]; A549 cells, 48 h, comparison among the three tested compounds) | Cell cycle distribution, sub G1 population [8] | Caspase 3, 8, and 9 cleavage (Western blot) ([6]; A549 cells treated for 48 h, 0.25, 5 and 10 µM)
> 10 µM | – | 7.19 ± 0.77 µM | – | – | – | – | – | – | – | COc1ccccc1-c1cnc2c(NCc3ccc(C(=O)NO)cc3)cccc2c1 [Compound 19, N-Hydroxy-4-(((3–(2-methoxyphenyl)quinolin-8-yl)amino)methyl)benzamide] | – | – | –
8.65 ± 2.35 µM | – | 6 ± 1.56 µM | – | – | – | – | – | – | – | N#Cc1ccccc1-c1cnc2c(NCc3ccc(C(=O)NO)cc3)cccc2c1 [Compound 21, 4-(((3–(2-Cyanophenyl)quinolin-8-yl)amino)methyl)-N-hydroxybenzamide amide] | – | – | –
3.64 ± 0.66 µM | – | 3.5 ± 0.32 µM | – | – | – | – | – | – | – | N#Cc1ccc(-c2cnc3c(NCc4ccc(C(=O)NO)cc4)cccc3c2)cc1 [Compound 23, 4-(((3–(4-Cyanophenyl)quinolin-8-yl)amino)methyl)-N-hydroxybenzamide] | – | – | –
1.29 ± 0.41 µM | 0.00475 µM | 1.61 ± 0.22 µM | 1.8 µM | 2.62 µM | 1.31 µM | (379) | (552) | (276) | 1.29 to 2.13 µM | O=C(NO)c1ccc(CNc2cccc3cc(-c4cccnc4)cnc23)cc1 [Compound 25, N-Hydroxy-4-(((3-(pyridin-3-yl)quinolin-8-yl)amino)methyl)benzamide] | – | concentration dependent accumulation of A549 cells in sub G1 phase | dose dependent increases in caspase 3, 8, and 9 cleavage
3.18 ± 0.19 µM | 0.0207 µM | 2.2 ± 0.17 µM | 3.14 µM | 3.4 µM | 1.28 µM | (152) | (164) | (62) | – | O=C(NO)c1ccc(CNc2cccc3cc(-c4ccco4)cnc23)cc1 [Compound 27, 4-(((3-(Furan-2-yl)quinolin-8-yl)amino)methyl)-N-hydroxybenzamide] | – | – | –
